Several values for one entry are separate records, joined by “and”; a condition that tells them apart may be missing. Equal values may be shown once.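 Grown in 96-well plates, cells were treated for 48 hours with each compound at five concentrations. Insufficient inhibition: endpoint recorded as highest concentration tested. Abbreviation: GI50, concentration required for 50% inhibition of growth. TGI is the concentration that stops growth completely.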
Columns and labels:
Experiment in all cases: inhibition of tumour cell growth, NCI panel, 48 h
A498 renal = tested on: A498 renal
CAKI-1 renal = tested on: CAKI-1 renal
HCC-2998 colon = tested on: HCC-2998 colon
M14 melanoma = tested on: M14 melanoma
SF-539 CNS = tested on: SF-539 CNS
SK-MEL-28 melanoma = tested on: SK-MEL-28 melanoma
SNB-75 CNS = tested on: SNB-75 CNS
SR leukemia = tested on: SR leukemia
TK-10 renal = tested on: TK-10 renal
UACC-257 melanoma = tested on: UACC-257 melanoma

Compound	GI50 (A498 renal)	TGI (A498 renal)	GI50 (CAKI-1 renal)	TGI (CAKI-1 renal)	GI50 (HCC-2998 colon)	TGI (HCC-2998 colon)	GI50 (M14 melanoma)	TGI (M14 melanoma)	GI50 (SF-539 CNS)	TGI (SF-539 CNS)	GI50 (SK-MEL-28 melanoma)	TGI (SK-MEL-28 melanoma)	GI50 (SNB-75 CNS)	TGI (SNB-75 CNS)	GI50 (SR leukemia)	TGI (SR leukemia)	GI50 (TK-10 renal)	TGI (TK-10 renal)	GI50 (UACC-257 melanoma)	TGI (UACC-257 melanoma)
Nc1nc(N)c2c(n1)NC(c1sc(Cl)nc1Cl)CC(c1ccccc1)=N2 (configuration not stated)	1.28 µM	8.92 µM	3.28 µM	19.6 µM	10.3 µM	21.9 µM	2.64 µM	10.4 µM	2.69 µM	9.97 µM	4.26 µM	17.8 µM	1.63 µM	7.59 µM	2.25 µM	8.86 µM	11.5 µM	24.1 µM	6.77 µM	20.9 µM
O=C(Nc1ccc(OS(=O)(=O)c2ccc(F)cc2)cc1)C12CC3CC(CC(C3)C1)C2	0.936 µM	22.4 µM	29.4 µM	> 100 µM	> 28.2 µM	> 100 µM	8.12 µM	> 100 µM	0.75 µM	> 100 µM	28.1 µM	> 100 µM	4.51 µM	26.8 µM	2.03 µM	> 100 µM	21.5 µM	62.6 µM	11 µM	> 100 µM
O/N=C1/CCCC/C1=C/C=C/c1ccccc1		41.2 µM		> 100 µM		45.2 µM		40.9 µM		38.3 µM		10.2 µM		75.3 µM		> 100 µM		62 µM		64 µM
C/C(=C1/N=C(c2cc([N+](=O)[O-])ccc2Cl)N(c2ccc(Br)cc2)C1=O)c1ccc(N(CCC#N)CCC#N)cc1C		96.4 µM		> 100 µM		72.1 µM		> 100 µM		> 100 µM		> 100 µM		> 100 µM		42.1 µM		> 100 µM		> 100 µM
C/C(=N\Nc1ccccc1)c1sc(-c2nc(C)c(/C(C)=N/Nc3ccccc3)s2)nc1C		> 100 µM		> 89.4 µM		19.9 µM		25 µM		> 37.7 µM		> 85.8 µM		> 77.1 µM		> 100 µM		> 100 µM		> 70.4 µM
NC(Cc1ccccc1)C(=O)OCN1C(=O)C2C3C=CC(C2C1=O)C1C2C(=O)N(COC(=O)C(N)Cc4ccccc4)C(=O)C2C31 (configuration not stated)	> 100 µM and 46 µM	> 100 µM	37.8 µM and 77.2 µM	> 100 µM	55.4 µM	> 100 µM		35 µM and 33.9 µM		44.8 µM and 44.6 µM		44.4 µM and 36 µM		64.6 µM and 62.3 µM		50.3 µM		> 100 µM		67.1 µM and 50.1 µM
O=C1C=CC2(CCCCCCC2=O)CC1 (configuration not stated)		> 100 µM		> 100 µM		> 100 µM		> 100 µM		> 100 µM		> 100 µM		> 100 µM		> 100 µM		> 100 µM		> 100 µM
COc1cccc(/C=N/[N-]C(=O)c2ccncc2)c1[O-].[Mn+2].[OH3+]	27.4 µM	94.3 µM	8.97 µM	> 100 µM	19 µM	> 100 µM	7.96 µM	52.4 µM	2.51 µM	8.97 µM	11.2 µM	> 100 µM	26.8 µM	> 100 µM	3.63 µM	> 100 µM	18.3 µM	> 100 µM	5.05 µM	96.2 µM
C[C@@H](Nc1nc(N[C@H](C)C(F)(F)F)nc(-c2cccc(Cl)n2)n1)C(F)(F)F	29.9 µM	99.7 µM	24.9 µM	96.2 µM	66.3 µM	> 100 µM	> 100 µM	> 100 µM	26.5 µM	68.6 µM	72.5 µM	> 100 µM	15.8 µM	44.3 µM	> 100 µM	> 100 µM	39.9 µM	> 100 µM	51.4 µM	> 100 µM
CCc1cccc(C(C)C)c1NC(=O)CC1Sc2ccccc2NC1=O (configuration not stated)		> 100 µM		> 100 µM		> 100 µM		> 100 µM		> 100 µM		> 100 µM		> 100 µM		94.4 µM		> 100 µM		> 100 µM
C[C@@H](O)[C@@H](C)Oc1nc(Nc2ccc(S(=N)(=O)C3CC3)cc2)ncc1C(F)(F)F (some centres not stated)	0.021 µM	0.0461 µM	0.039 µM	> 100 µM	0.0465 µM	2.72 µM	0.0349 µM	0.316 µM	0.0162 µM	0.0384 µM	0.0294 µM	0.178 µM	0.0162 µM	0.0554 µM	< 0.0122 µM	0.0475 µM	0.0377 µM	> 45.9 µM	0.0306 µM	0.133 µM
COc1ccc(-n2cc(-c3cc(OC)c(OC)c(OC)c3)nc2SCc2ccc(Cl)cc2)cc1OC	89 µM	> 100 µM	> 100 µM	> 100 µM	> 100 µM	> 100 µM	> 100 µM	> 100 µM	> 100 µM	> 100 µM	> 100 µM	> 100 µM	9.82 µM	> 100 µM	> 100 µM	> 100 µM	> 100 µM	> 100 µM	> 100 µM	> 100 µM
C[C@H]1CCC/C=C/C2CC(OC(=O)CN(C)C)CC2C(OC(=O)CN(C)C)/C=C/C(=O)O1 (some centres not stated)	0.0508 µM	0.282 µM	0.38 µM	7.69 µM	0.215 µM	0.537 µM	0.178 µM	4.65 µM	0.531 µM	> 100 µM	0.472 µM	> 100 µM	0.0567 µM		0.38 µM	10.1 µM	0.318 µM	17.9 µM	0.342 µM	27.5 µM
Oc1ccc(NC(=S)Nc2ccccc2)cc1	> 100 µM	> 100 µM	> 100 µM	> 100 µM	> 100 µM	> 100 µM	> 100 µM	> 100 µM	> 100 µM	> 100 µM	> 100 µM	> 100 µM	> 100 µM	> 100 µM	> 100 µM	> 100 µM	> 100 µM	> 100 µM	> 100 µM	> 100 µM

From PubChem BioAssay (NCI)
